In patent US7384927B2, “Alkylated porphyrins as pesticides acting both in the presence and absence of light” (priority 2003, dated 2008):

Key:
Format in all cases: in vivo
Ceratitis capitata flies [1] = test: Insecticidal action in the dark: fly survival after porphyrin bait; conditions: for mortality of the flies in the dark: C. capitata, even at the largest porphyrin dose (8.1 μM); for Survival (% of control untreated flies): dark, fed 24 h, survival 12 h after change to porphyrin-free bait
Method: For comparison, data obtained with two conventional porphyrins (as those described in WO 97/29637) offered to the insects for 24 h at a 3.0 and 8.1 μmolar concentration in the same bait are also shown. In all cases, the survival was determined 12 hours after changing food supply from a porphyrin-containing to a porphyrin-free bait. […] These flies were then used in the various experimental sessions. […] The number of survivors was evaluated 12 h after switching from administration of a porphyrin-containing bait to a porphyrin-free bait. In none of the experiments was mortality or any apparent toxic effect observed in control flies (flies not fed with porphyrin, see survival at 0 μM porphyrin concentration).

Ceratitis capitata flies [2] = test: Photoinsecticidal action: fly survival after bait and visible light irradiation (artificial lamp); conditions: 8 μM in bait, survival 10 h after irradiation
Method: (§1) Porphyrins: • a) meso[tri(N-methyl-pyridyl), mono(N-dodecyl-pyridyl)]porphine (abbr.: C12) • b) meso[tri(N-methyl-pyridyl), mono(N-tetradecyl-pyridyl)]porphine (abbr.: C14) • c) meso[tri(N-methyl-pyridyl), mono(N-octadecyl-pyridyl)]porphine (abbr.: C18) Bait: Aqueous solution containing 10% sucrose and 1% autolysed yeast Flies: • a) Ceratitis capitata (fruit fly) age: 1 week; weight: 5-6 mg • b) Bactrocera oleae (olive fly) age: 10 days; weight: 4-4.5 mg • c) Stomoxis calcitrans (stable fly) age: 10 days; weight: 12 mg Irradiation: • a) High pressure halogen lamp, equipped with infrared and UV filters, emission 360-850 nm, operated at intensities in the 760-2,000 μE s^−1m^−2 range • b) Sunlight, mid June at Padua latitude, average intensity of […] μE s^−1m^−2 with minimum and maximum values of 950 and, respectively, 1,380 μE s^−1m^−2
The irradiations were performed for 1 h, then the flies were kept in dim light for monitoring the survival. Control flies were irradiated under identical conditions after feeding with a porphyrin-free bait.
The irradiations were performed for 1 h at a fluence-rate of 1220 μE s^−1m^−2. The survival was evaluated 10 h after the end of irradiation. […] The porphyrins are abbreviated as following: HP: haematoporphyrin; C1: meso-tetra(N-methyl-pyridyl)porphine.
The survival was evaluated 10 h after the end of irradiation.
An appropriate number of flies (50 flies per each experiment) was caged in 115×55×70 mm Plexiglas cages with several holes (ø=0.5 mm) and starved for 36 h. Then, depending on the protocol to be adopted for each specific experiment, the flies were fed with the bait (10% sucrose and 1% autolysed yeast in neutral aqueous solution), which was either porphyrin-free or added with a predetermined concentration of the porphyrin. These flies were then used in the various experimental sessions. […]

Ceratitis capitata flies [3] = test: Photoinsecticidal action: fly survival after bait and sunlight irradiation; conditions: 8 μM in bait, 12 h after feeding, survival 1 h after irradiation
Method: as §1
The survival was evaluated 1 h after the end of irradiation.
An appropriate number of flies (50 flies per each experiment) was caged in 115×55×70 mm Plexiglas cages with several holes (ø=0.5 mm) and starved for 36 h. Then, depending on the protocol to be adopted for each specific experiment, the flies were fed with the bait (10% sucrose and 1% autolysed yeast in neutral aqueous solution), which was either porphyrin-free or added with a predetermined concentration of the porphyrin. These flies were then used in the various experimental sessions.

[4] = fluence-rate 760 μE s^−1m^−2, irradiated 24 h after feeding (title)
[5] = fluence-rate 1220 μE s^−1m^−2, irradiated 24 h after feeding (title)
[6] = fluence-rate 1500 μE s^−1m^−2, irradiated 24 h after feeding (title)
[7] = fluence-rate 2000 μE s^−1m^−2, irradiated 24 h after feeding (title)
[8] = time interval feeding-irradiation 0 h, irradiation 1 h at 1220 μE s^−1m^−2
[9] = time interval feeding-irradiation 12 h, irradiation 1 h at 1220 μE s^−1m^−2
[10] = time interval feeding-irradiation 24 h, irradiation 1 h at 1220 μE s^−1m^−2
[11] = time interval feeding-irradiation 48 h, irradiation 1 h at 1220 μE s^−1m^−2

Row | SMILES | mortality of the flies in the dark (Ceratitis capitata flies [1]) | Survival (% of control untreated flies) (Ceratitis capitata flies [1]; 3.00 μM in bait) | Survival (% of control untreated flies) (Ceratitis capitata flies [1]; 8.10 μM in bait) | Survival (% of control untreated flies) (Ceratitis capitata flies [2]; [4]) | Survival (% of control untreated flies) (Ceratitis capitata flies [2]; [5]) | Survival (% of control untreated flies) (Ceratitis capitata flies [2]; [6]) | Survival (% of control untreated flies) (Ceratitis capitata flies [2]; [7]) | Survival (% of control untreated flies) (Ceratitis capitata flies [2]; [8]) | Survival (% of control untreated flies) (Ceratitis capitata flies [2]; [9]) | Survival (% of control untreated flies) (Ceratitis capitata flies [2]; [10]) | Survival (% of control untreated flies) (Ceratitis capitata flies [2]; [11]) | Survival (% of control untreated flies) (Ceratitis capitata flies [3]; sunlight 15 min) | Survival (% of control untreated flies) (Ceratitis capitata flies [3]; sunlight 30 min) | Survival (% of control untreated flies) (Ceratitis capitata flies [3]; sunlight 45 min) | Survival (% of control untreated flies) (Ceratitis capitata flies [3]; sunlight 60 min)
1 | CC1=C(CCC(=O)O)c2cc3[nH]c(cc4nc(cc5[nH]c(cc1n2)c(C)c5C(C)O)C(C)=C4C(C)O)c(C)c3CCC(=O)O (stereo not drawn) [Hp, Haematoporphyrin, reference compound] | no mortality of the flies was observed | 100 % of control untreated flies | 100 % of control untreated flies | 81 % of control untreated flies | 20 % of control untreated flies | 11 % of control untreated flies | 8 % of control untreated flies | 20 % of control untreated flies | 37 % of control untreated flies | 58 % of control untreated flies | 61 % of control untreated flies | 75 % of control untreated flies | 70 % of control untreated flies | 64 % of control untreated flies | 40 % of control untreated flies
2 | C[n+]1ccc(-c2c3nc(c(-c4cc[n+](C)cc4)c4ccc([nH]4)c(-c4cc[n+](C)cc4)c4nc(c(-c5cc[n+](C)cc5)c5ccc2[nH]5)C=C4)C=C3)cc1 [C1, Meso-tetra (N-methyl-pyridyl) porphine, reference compound] | no mortality of the flies was observed | 100 % of control untreated flies | 100 % of control untreated flies | 100 % of control untreated flies | 90 % of control untreated flies | 81 % of control untreated flies | 73 % of control untreated flies | 90 % of control untreated flies | 94 % of control untreated flies | 100 % of control untreated flies | 97 % of control untreated flies | 100 % of control untreated flies | 100 % of control untreated flies | 93 % of control untreated flies | 97 % of control untreated flies
